The values that follow come from ChEMBL document CHEMBL5291721, “A preclinical secondary pharmacology resource illuminates target-adverse drug reaction associations of marketed drugs” (Nat Commun, 2023).

Targets include Adenosine receptor A2a (Homo sapiens, UniProt P29274); Motilin receptor (Homo sapiens, UniProt O43193); Melanocortin receptor 3 (Homo sapiens, UniProt P41968).
The target of the next assay is T1, B2 bradykinin receptor (Homo sapiens, UniProt P30411).
T1 sequence (P30411 whole entry): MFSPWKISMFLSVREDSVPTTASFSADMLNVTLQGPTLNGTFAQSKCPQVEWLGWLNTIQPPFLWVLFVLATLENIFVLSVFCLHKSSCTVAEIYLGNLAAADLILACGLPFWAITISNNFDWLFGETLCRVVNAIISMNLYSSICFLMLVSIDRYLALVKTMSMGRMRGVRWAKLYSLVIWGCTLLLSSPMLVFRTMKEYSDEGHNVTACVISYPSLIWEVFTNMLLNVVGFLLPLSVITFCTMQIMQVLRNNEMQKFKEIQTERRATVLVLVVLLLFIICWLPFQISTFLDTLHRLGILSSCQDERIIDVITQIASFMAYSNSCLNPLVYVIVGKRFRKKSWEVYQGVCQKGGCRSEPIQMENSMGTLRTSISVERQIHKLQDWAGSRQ

Assay [1] addresses Delta-type opioid receptor (Homo sapiens, UniProt P41143).
Another assay addresses T2, Thromboxane A2 receptor (Homo sapiens, UniProt P21731).
T2 sequence (P21731 whole entry): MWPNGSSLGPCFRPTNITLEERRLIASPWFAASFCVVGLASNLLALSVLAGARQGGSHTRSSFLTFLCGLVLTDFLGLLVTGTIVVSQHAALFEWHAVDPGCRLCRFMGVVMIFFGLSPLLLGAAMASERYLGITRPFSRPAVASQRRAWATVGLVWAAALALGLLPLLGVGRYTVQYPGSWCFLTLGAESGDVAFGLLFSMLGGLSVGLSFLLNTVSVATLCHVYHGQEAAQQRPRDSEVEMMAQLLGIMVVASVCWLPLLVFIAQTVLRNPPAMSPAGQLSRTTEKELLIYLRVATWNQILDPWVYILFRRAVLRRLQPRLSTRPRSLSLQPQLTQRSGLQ

For a further assay, the target named is T3, Endothelin-1 receptor (Homo sapiens, UniProt P25101).
T3 sequence (P25101 whole entry): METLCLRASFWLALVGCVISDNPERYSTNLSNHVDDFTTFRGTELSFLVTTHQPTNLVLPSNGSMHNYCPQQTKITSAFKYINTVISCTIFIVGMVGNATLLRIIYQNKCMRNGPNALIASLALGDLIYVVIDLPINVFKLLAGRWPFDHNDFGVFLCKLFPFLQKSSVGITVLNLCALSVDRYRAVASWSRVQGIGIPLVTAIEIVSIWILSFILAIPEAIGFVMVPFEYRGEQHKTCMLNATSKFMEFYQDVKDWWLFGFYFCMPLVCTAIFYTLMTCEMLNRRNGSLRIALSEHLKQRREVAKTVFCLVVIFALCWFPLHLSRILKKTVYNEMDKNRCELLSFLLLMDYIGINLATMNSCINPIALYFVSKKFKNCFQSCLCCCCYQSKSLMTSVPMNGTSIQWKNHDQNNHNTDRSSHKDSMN

For assay [2], the target named is Neuronal acetylcholine receptor subunit alpha-4 (Homo sapiens, UniProt P43681).
The target in assay [3] is T4, Amine oxidase [flavin-containing] A (Homo sapiens, UniProt P21397).
T4 sequence (P21397 whole entry): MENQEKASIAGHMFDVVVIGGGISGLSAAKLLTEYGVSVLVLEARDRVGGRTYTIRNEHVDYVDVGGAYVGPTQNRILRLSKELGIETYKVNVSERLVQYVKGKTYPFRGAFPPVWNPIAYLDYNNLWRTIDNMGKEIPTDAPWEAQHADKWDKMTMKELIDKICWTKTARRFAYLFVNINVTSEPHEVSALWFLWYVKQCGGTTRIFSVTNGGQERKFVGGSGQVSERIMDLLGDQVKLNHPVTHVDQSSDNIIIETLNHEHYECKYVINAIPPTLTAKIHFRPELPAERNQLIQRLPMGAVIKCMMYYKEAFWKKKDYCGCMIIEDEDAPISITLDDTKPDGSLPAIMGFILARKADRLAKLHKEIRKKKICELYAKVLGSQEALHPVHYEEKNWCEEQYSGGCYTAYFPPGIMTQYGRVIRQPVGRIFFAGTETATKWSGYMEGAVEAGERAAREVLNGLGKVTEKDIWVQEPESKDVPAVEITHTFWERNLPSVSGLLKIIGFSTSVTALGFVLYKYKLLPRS
The assay is classed as functional.

The target of the next assay is T5, Glucocorticoid receptor (Homo sapiens, UniProt P04150).
T5 sequence (P04150 whole entry): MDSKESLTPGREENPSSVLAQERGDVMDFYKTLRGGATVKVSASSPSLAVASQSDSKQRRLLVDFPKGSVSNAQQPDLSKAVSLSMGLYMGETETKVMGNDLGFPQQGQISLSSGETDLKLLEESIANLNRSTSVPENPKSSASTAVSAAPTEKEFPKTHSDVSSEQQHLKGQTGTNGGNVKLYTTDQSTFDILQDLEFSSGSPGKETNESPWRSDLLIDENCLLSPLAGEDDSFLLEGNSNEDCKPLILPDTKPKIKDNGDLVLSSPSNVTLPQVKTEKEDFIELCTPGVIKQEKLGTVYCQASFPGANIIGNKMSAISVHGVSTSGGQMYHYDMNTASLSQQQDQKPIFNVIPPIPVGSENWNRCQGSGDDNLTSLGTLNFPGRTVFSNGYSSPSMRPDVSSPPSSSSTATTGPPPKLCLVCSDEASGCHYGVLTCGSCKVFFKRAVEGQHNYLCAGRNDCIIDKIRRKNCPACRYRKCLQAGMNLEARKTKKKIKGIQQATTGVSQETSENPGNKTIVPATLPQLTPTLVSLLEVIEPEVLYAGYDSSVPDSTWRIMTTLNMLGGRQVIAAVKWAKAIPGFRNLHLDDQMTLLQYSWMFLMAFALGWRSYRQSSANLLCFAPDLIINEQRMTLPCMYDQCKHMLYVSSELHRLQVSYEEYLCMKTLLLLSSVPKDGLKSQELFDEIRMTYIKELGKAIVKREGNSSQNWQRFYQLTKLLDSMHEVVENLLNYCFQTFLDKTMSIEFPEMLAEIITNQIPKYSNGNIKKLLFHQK

For assay [4], the target named is Beta-2 adrenergic receptor (Homo sapiens, UniProt P07550).
Note: assay procedure not described here.

Chain of Motilin receptor (O43193 whole entry): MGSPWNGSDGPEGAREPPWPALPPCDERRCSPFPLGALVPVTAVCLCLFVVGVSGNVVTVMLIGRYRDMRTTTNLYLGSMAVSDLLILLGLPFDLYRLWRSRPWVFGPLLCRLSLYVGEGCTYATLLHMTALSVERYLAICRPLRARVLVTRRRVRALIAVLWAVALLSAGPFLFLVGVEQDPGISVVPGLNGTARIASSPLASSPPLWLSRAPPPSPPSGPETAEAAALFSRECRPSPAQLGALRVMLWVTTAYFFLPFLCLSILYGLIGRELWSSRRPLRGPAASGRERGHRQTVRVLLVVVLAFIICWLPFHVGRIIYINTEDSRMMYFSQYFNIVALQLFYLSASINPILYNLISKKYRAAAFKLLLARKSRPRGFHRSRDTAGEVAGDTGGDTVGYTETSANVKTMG
Chain of Delta-type opioid receptor (P41143 whole entry): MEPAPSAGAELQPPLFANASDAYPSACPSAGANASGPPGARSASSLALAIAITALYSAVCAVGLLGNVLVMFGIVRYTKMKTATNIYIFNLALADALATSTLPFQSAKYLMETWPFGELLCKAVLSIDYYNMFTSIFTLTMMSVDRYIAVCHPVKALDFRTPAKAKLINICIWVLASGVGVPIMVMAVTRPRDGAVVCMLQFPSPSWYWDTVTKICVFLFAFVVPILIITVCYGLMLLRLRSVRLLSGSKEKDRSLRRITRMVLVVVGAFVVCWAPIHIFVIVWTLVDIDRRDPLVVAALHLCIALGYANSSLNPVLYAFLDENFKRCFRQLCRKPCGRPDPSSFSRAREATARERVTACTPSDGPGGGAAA
Chain of Melanocortin receptor 3 (P41968 whole entry): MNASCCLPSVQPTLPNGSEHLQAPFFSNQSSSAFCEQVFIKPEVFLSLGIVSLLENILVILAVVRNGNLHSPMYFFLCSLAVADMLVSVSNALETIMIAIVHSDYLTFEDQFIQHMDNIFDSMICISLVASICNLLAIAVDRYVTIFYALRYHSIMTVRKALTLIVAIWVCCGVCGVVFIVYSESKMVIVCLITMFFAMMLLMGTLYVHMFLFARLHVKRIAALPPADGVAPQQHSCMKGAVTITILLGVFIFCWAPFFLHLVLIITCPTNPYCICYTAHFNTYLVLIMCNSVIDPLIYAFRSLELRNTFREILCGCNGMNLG
Chain of Adenosine receptor A2a (P29274 whole entry): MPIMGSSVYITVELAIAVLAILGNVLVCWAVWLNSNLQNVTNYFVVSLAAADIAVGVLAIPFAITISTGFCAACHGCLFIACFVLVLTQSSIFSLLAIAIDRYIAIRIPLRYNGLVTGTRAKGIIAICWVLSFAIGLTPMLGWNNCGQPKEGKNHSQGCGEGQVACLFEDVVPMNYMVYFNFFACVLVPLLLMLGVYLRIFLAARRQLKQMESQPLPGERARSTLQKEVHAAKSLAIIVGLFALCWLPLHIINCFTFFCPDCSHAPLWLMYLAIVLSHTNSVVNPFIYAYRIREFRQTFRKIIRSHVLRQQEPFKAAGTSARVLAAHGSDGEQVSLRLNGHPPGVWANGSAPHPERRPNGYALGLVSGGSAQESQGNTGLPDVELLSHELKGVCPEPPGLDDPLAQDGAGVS
Chain of Neuronal acetylcholine receptor subunit alpha-4 (P43681 whole entry): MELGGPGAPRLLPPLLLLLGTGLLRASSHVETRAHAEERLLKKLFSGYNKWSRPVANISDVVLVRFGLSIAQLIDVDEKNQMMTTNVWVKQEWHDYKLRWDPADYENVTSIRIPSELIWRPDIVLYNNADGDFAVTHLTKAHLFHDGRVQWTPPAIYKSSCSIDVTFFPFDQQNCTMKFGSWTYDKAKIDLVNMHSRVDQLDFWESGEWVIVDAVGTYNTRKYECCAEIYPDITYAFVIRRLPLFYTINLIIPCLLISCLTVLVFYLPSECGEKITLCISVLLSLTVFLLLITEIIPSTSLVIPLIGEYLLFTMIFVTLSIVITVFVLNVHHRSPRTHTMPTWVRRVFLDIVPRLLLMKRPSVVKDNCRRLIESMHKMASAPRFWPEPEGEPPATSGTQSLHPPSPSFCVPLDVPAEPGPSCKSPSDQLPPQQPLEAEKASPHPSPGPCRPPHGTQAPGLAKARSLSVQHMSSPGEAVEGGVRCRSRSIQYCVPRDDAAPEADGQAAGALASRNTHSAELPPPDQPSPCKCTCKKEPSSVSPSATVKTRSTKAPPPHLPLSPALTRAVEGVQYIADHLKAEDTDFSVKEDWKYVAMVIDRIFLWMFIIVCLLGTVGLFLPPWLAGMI
Chain of Beta-2 adrenergic receptor (P07550 whole entry): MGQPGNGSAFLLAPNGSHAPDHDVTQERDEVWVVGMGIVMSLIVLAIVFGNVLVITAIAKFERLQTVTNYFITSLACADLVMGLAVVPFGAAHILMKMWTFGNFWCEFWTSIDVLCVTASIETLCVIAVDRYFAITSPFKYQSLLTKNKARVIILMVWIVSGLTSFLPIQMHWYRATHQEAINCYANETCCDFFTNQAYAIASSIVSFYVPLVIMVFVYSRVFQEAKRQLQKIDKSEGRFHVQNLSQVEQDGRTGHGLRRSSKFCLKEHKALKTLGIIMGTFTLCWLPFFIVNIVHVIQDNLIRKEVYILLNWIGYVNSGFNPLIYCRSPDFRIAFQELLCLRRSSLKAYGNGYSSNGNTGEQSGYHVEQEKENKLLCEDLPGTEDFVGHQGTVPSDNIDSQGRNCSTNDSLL

For `Nc1ccc(C(=O)O)c(O)c1` [AMINOSALICYLIC ACID], the half-maximal activity concentration (AC50) (at B2 bradykinin receptor; in assay [1]; on Adenosine receptor A2a; at Thromboxane A2 receptor; at Endothelin-1 receptor; in assay [2]) was above 30 µM throughout. Besides, the AC50 (on Motilin receptor; in [3]; on Glucocorticoid receptor; on Melanocortin receptor 3) was above 30 µM in each case.

Take `CS(=O)(=O)OCCCCOS(C)(=O)=O` [BUSULFAN]: the AC50 (on B2 bradykinin receptor; in assay [1]; on Adenosine receptor A2a; at Endothelin-1 receptor; in [2]; on Motilin receptor) was above 30 µM throughout. The concentration at half-maximal activity (AC50) (in assay [3]; at Melanocortin receptor 3) was above 30 µM in each case.

As for `CC(C)(C)NCC(O)c1cc(Cl)c(N)c(Cl)c1` (configuration not stated) [CLENBUTEROL], the AC50 (on B2 bradykinin receptor; in assay [1]; at Adenosine receptor A2a; on Thromboxane A2 receptor; on Endothelin-1 receptor; in assay [2]) was above 30 µM throughout. For the same compound, the AC50 (at Motilin receptor; in assay [3]; at Melanocortin receptor 3) was above 30 µM throughout.

Consider `Nc1ccn([C@@H]2O[C@H](CO)[C@@H](O)C2(F)F)c(=O)n1` [GEMCITABINE], for which the AC50 is above 30 µM at B2 bradykinin receptor; above 30 µM in assay [1]; above 30 µM on Adenosine receptor A2a; above 30 µM on Thromboxane A2 receptor; above 30 µM in assay [4]; above 10 µM in [2]. Moreover, the half-maximal activity concentration (AC50) was above 10 µM at Motilin receptor, above 10 µM in [3], above 30 µM at Glucocorticoid receptor and above 30 µM at Melanocortin receptor 3.

Regarding `CCn1cc(C(=O)O)c(=O)c2cc(F)c(N3CCN(C)CC3)cc21` [PEFLOXACIN], the AC50 (on B2 bradykinin receptor; in [1]; at Adenosine receptor A2a; at Endothelin-1 receptor; on Motilin receptor; in [3]) was above 30 µM throughout. Also, the AC50 on Glucocorticoid receptor and on Melanocortin receptor 3 was above 30 µM throughout.

For `C[n+]1ccccc1/C=N/O` [PRALIDOXIME], the AC50 in [1] and in assay [3] was above 30 µM in each case.

As to `CCCNC(C)C(=O)Nc1ccccc1C` (configuration not stated) [PRILOCAINE], the half-maximal activity concentration (AC50) (on B2 bradykinin receptor; in assay [1]; on Adenosine receptor A2a; on Endothelin-1 receptor; in assay [2]; on Motilin receptor) was above 30 µM throughout. Also, the concentration at half-maximal activity (AC50) (in assay [3]; on Glucocorticoid receptor; on Melanocortin receptor 3) was above 30 µM throughout.

On to `CC(C)(C)NC[C@H](O)COc1nsnc1N1CCOCC1` [TIMOLOL], for which the AC50 (at B2 bradykinin receptor; in assay [1]; on Adenosine receptor A2a; at Thromboxane A2 receptor; at Endothelin-1 receptor; in assay [2]) was above 30 µM throughout. The half-maximal activity concentration (AC50) (at Motilin receptor; in assay [3]; at Glucocorticoid receptor; at Melanocortin receptor 3) was above 30 µM throughout.

On to `CN1[C@@H]2CC[C@H]1C[C@@H](OC(=O)c1c[nH]c3ccccc13)C2` [TROPISETRON], for which the AC50 is above 30 µM on B2 bradykinin receptor; above 30 µM at Adenosine receptor A2a; above 30 µM at Thromboxane A2 receptor; above 30 µM at Endothelin-1 receptor; 5.2 µM in [2]; above 30 µM on Motilin receptor. Moreover, the concentration at half-maximal activity (AC50) (in assay [3]; at Melanocortin receptor 3) was above 30 µM each time.

Regarding `COc1ccc(C(CN(C)C)C2(O)CCCCC2)cc1` (configuration not stated) [VENLAFAXINE], the AC50 is above 30 µM on B2 bradykinin receptor; above 30 µM in [1]; above 30 µM at Adenosine receptor A2a; above 10 µM in assay [4]; above 10 µM in assay [2]; above 10 µM at Motilin receptor. Further, the concentration at half-maximal activity (AC50) in assay [3] is above 10 µM; on Melanocortin receptor 3, above 30 µM.

The AC50 is the midpoint of the concentration-response curve, whichever way the signal moves.
